Source: patent publication US10646490B2, “Thieno- and pyrrolopyrimidine analogues and prodrugs thereof as anticancer agents and methods of use thereof” (UNIVERSITY OF MARYLAND, BALTIMORE COUNTY, priority 2015, dated 2020)
Like-named read-outs stand apart in the source and are kept apart here.

Experiments:
[1] = tested on: MIA Pa-Ca-2 pancreatic cancer cells; assay: Cancer cell line activity screening; format: cell-based
A549 = assay: Cancer cell line activity screening; format: cell-based
[2] = tested on: various cancer cell lines; assay: Cancer cell line activity screening, panel; format: cell-based; conditions: Table 5; read-out: IC50 values as low as
Description: (§1) In order to investigate the PK profile of these compounds, a series of halogenated pyrrolo[3,2-d]pyrimidine compounds was synthesized and first tested for activity in various cancer cell lines followed by a mouse model. […] This indicates a wide variance in activity and toxicity that necessitated the synthesis of a second series of compounds with N5 alkyl substitutions in an effort to slow the rate of metabolism, which was thought to be leading to the toxicity.

MOLM14 = assay: Cancer cell line activity screening; format: cell-based
[3] = Maximum tolerated dose / toxicity in mice; format: in vivo; conditions: for MTD: mouse, in vivo
Description: as §1

MDA-MB-231 = assay: Cancer cell line activity screening; format: cell-based, human
[4] = Stability in aqueous buffer; format: physicochemical
[5] = Mouse pharmacokinetics, plasma half-life; format: in vivo; conditions: for t1/2: 10 mg/kg injection
Procedure: Further, mouse studies on 7 were carried out at The Cancer Center Pharmacology Core (CCPC, Colorado State University) by injection of 10 mg/kg of the compound, followed by euthanization at 15, 30, 60, 90, 120, 240, and 480 minutes. […] Mouse studies on 9 were performed in the same manner.

[6] = Stability in biological media; format: in vitro ADME

Row | Structure (SMILES) | IC50 ([1]; Homo sapiens, MIA PaCa-2) | IC50 (A549; Homo sapiens, A549) | IC50 [2] | IC50 (MOLM14; Homo sapiens, MOLM-14) | MTD ([3]; mice) | toxicity higher than 7 ([3]; vs 7) | IC50 (MDA-MB-231; Homo sapiens, MDA-MB-231) | duration stable in aqueous buffer (for up to) [4] | t1/2 [5] | maximum tolerated dose (MTD) ([3]; mice) | time to undetectable in biological media [6] | IC50 [1] | IC50 (A549) | IC50 (MOLM14) | IC50 (MDA-MB-231) | time to little to no detection in mouse plasma [5]
1 | Clc1nc(Cl)c2[nH]cc(Br)c2n1 [Compound 6] | 14 ± 1 nM | 50 ± 20 nM | ≥ 14 nM | 23 ± 4 nM | 5 to 40 mg/kg | 2 fold | 400 ± 300 nM | – | – | – | – | – | – | – | – | –
2 | Clc1nc(Cl)c2c(n1)c(I)cn2COCc1ccccc1 [Compound 8, 5-((Benzyloxy)methyl)-2,4-dichloro-7-iodo-pyrrolo[3,2-d]pyrimidine] | 7300 ± 800 nM | – | – | – | – | – | 6100 ± 400 nM | – | – | – | – | – | – | – | – | –
3 | Cc1ccc(S(=O)(=O)n2cc(I)c3nc(Cl)nc(Cl)c32)cc1 [Compound 9, 2,4-Dichloro-7-iodo-5-tosyl-pyrrolo[3,2-d]pyrimidine] | 500 ± 20 nM | – | – | – | 5 to 40 mg/kg | – | 790 ± 40 nM | up to 24 hours | 32.7 min | 40 mg/kg | ≤ 1 hour | – | – | – | – | –
4 | Clc1nc(Cl)c2[nH]ccc2n1 [Compound 19, 2,4-Dichloropyrrolo[3,2-d]pyrimidine] | – | – | – | – | – | – | – | – | – | – | – | 5300 ± 1000 nM | 14500 ± 3500 nM | 9500 ± 3100 nM | 9700 ± 9700 nM | –
5 | Clc1nc(Cl)c2[nH]cc(I)c2n1 [Compound 20, 7-iodo-2,4-dichloro pyrrolo[3,2-d]pyrimidine] | 370 ± 50 nM | 1000 ± 100 nM | ≥ 14 nM | 550 ± 70 nM | 5 to 40 mg/kg | – | 1200 ± 400 nM | – | 30.7 min | – | – | – | – | – | – | ≤ 70 min
